# How the values were obtained:
# [1] = system: mixed lymphocyte culture reaction (spleen cells of C57BL/6 and BALB/C mice); assay: Mixed lymphocyte culture reaction (MLR); assay type: cell-based, mouse (C57BL/6 stimulator, BALB/C responder); settings: Mus musculus, Lymphocyte, 42 hours, read-out: MLR activating rate (%)
# How it was run: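 Mouse one-way MLR: mitomycin C-treated (50 μg/ml, 30 min) C57BL/6 spleen cells stimulated BALB/C responder spleen cells, 2×10^6 cells/ml each, cultured 42 h at 37 °C with sample. ³H-thymidine (0.5 μCi/well) incorporation over a further 8 h gave MLR activating rate as % of vehicle uptake.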
# [2] = Solubility in water in aqueous Polysorbate 20 solutions; assay type: physicochemical; settings: vs Compound b
# Method: Compounds a and b comprising a monosaccharide as a constituent sugar which are disclosed in WO 93/05055 were synthesized as above. A 1 mg of each of the present compounds 4, 31 and 33 and Compound a and b was dissolved in 1 ml of an aqueous Polysorbate 20 solution in a variety of concentrations in order to observe visually the property.
# [3] = system: P388 mouse leukemia cells; assay: Life-span-prolonging (anti-tumor) effect on mice subcutaneously inoculated with P388 mouse leukemia cells; assay type: in vivo, mouse (CDF1 female)
# How it was run: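 CDF1 female mice (6 weeks), 5 per group, inoculated subcutaneously with P388 leukemia cells; life-span prolongation assessed. Lentinan and picibanil given intravenously on days 1, 3, 5, 7 and 9 after implantation; sizofilan given subcutaneously on days 1 through 9. Statistics by Mann-Whitney test.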
# [4] = system: mouse splenic lymphocytes; assay: Influence of Polysorbate on immunostimulating effect (3H-TdR uptake into mouse splenic lymphocytes); assay type: cell-based, mouse (BDF1 female); settings: for 3H-TdR uptake: mean of 3 wells
# Method: Experiment was performed with BDF1 female mice (6 weeks old) purchased from NIPPON SLC K.K. Spleens were removed from mice, and spleen cells were brayed with slide glasses and hemolized with NH4 Cl. 2×10^6cells/ml of the spleen cells which had been hemolized were suspended in 10% FCS RPMI 1640. The cell suspension (100 μl/well) and a vehicle or sample (10 μl/well) which was prepared so as to have a final level shown in Table 3 were added into wells of a round-bottomed 96 well plate, and cultured under the condition of 5% CO2 at 37° C. for 2 days. 0.5 μCi/well of ^3 H-thymidine (^3 H-TdR) was added. After 6 hours, the cells were harvested, and the amount of ^3 H-TdR uptaken into nucleus was measured by a liquid scintillation counter. The ratio (%) of the uptake of ^3 H-TdR in the sample group to that in the vehicle group was calculated and used as the in vitro mouse splenic lymphocyte-proliferation-stimulating rate.
# A sample of a solution of 1 mg of Compound 33 prepared in Experimental Example 8 in 1 ml of 10% or 0.1% Polysorbate 20, a sample of a solution of 1 mg of Compound b in 1 ml of 10% Polysorbate 20, or 10% and 0.1% Polysorbate 20, were prepared by subjecting to aseptic filtration followed by sequential 10 time dilution with PBS as shown in Table 5 in order to carry out the experiment described in Experimental Example 6.
# In this connection, 1 mg of Compound b was insoluble in 0.1% Polysorbate, and thus no experiment was conducted.
# mouse splenic lymphocyte = assay: In vitro mouse splenic lymphocyte-proliferation-stimulating effect (3H-TdR uptake); assay type: cell-based, mouse (BDF1 female); settings: Mus musculus, Splenic lymphocyte, 48 h; 10^0 μg/ml, 2 days; read-out: Uptake of 3H-TdR (% of control), splenic lymphocytes
# How it was run: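 Spleen cells from 6-week-old female BDF1 mice, 2×10^6 cells/ml in 10% FCS RPMI 1640, cultured with vehicle or sample 2 days at 37° C, 5% CO2. ^3H-TdR (0.5 μCi/well) uptake over 6 h by scintillation counting, expressed as % of vehicle.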
# mouse bone marrow cells = assay: In vitro mouse bone marrow cell-proliferation-promoting effect (3H-TdR uptake); assay type: cell-based, mouse (BDF1 female); settings: Mus musculus, Bone marrow cell, 96 h, 4 days, read-out: Uptake of 3H-TdR (% of control), bone marrow cells
# How it was run: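 Femoral bone marrow monocytes from 6-week female BDF1 mice (Lympholite M fraction, 1×10^6 cells/ml in 10% FCS RPMI 1640) cultured with sample for 4 days at 37 °C, 5% CO2. 3H-TdR (0.5 μCi/well) added for final 6 h; uptake ratio versus vehicle reported as activation rate.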
structure (smiles),measurement,setting,value
"CCCCCCCCCCCCCCCCCCCCCCCCCC(=O)N[C@@H](CO[C@H]1O[C@H](CO[C@H]2O[C@H](CO)[C@H](O)[C@H](O)[C@H]2O)[C@H](O)[C@H](O)[C@H]1O)[C@H](O)[C@H](O)CCCCCCCCCCCCCC [Compound 33, O-α-D-galactopyranosyl-(1→6)-O-α-D-galactopyranosyl-(1→1)-(2S,3S,4R)-2-amino-N-hexacosanoyl-1,3,4-octadecanetriol]",activity at 1 µg/mL,[1]; 1 × 10^0 μg/ml,302%
same,activity at 0.1 µg/mL,[1]; 1 × 10^-1 μg/ml,251%
same,"amount of Polysorbate 20 required for dissolving, relative to that required for Compound b",[2],1/100
same,Survival days ave. ± s. d.,"[3]; 0.1 mg/kg i.v. on days 1, 5 and 9, all marked ** (p < 0.01)",15.0 ± 0.7 days
same,response vs control in vivo at 0.1 mg/kg,"[3]; Mus musculus, P388, iv, 0.1 mg/kg i.v. on days 1, 5 and 9, survival vs vehicle, read-out: T/C (%)",117%
same,"life-span-prolonging effect (anti-tumor effect), in words",[3]; P388 s.c. system,intensive anti-tumor effects almost in the same level as that of Compound b
same,"3H-TdR-uptake-stimulating effect, in words",[4]; 10 μg/ml (0.001% Polysorbate 20),intensive ^3 H-TdR-uptake-stimulating effect
same,"3H-TdR uptake in words, compound with Polysorbate 20",[4]; 10 μg/ml (0.1% Polysorbate 20) and 1 μg/ml (0.01%) vs 0.1 μg/ml (0.001%),suppressed
same,3H-TdR uptake,"[4]; 0.1% PS20 stock (compound 1 mg/ml), dilution 10^2",24213 cpm
same,3H-TdR uptake,"[4]; 0.1% PS20 stock (compound 1 mg/ml), dilution 10^3",23332 cpm
same,3H-TdR uptake,"[4]; 0.1% PS20 stock (compound 1 mg/ml), dilution 10^4",26249 cpm
same,3H-TdR uptake,"[4]; 0.1% PS20 stock (compound 1 mg/ml), dilution 10^5",23653 cpm
same,3H-TdR uptake,"[4]; 10% PS20 stock (compound 1 mg/ml), dilution 10^2",119 cpm
same,3H-TdR uptake,"[4]; 10% PS20 stock (compound 1 mg/ml), dilution 10^3",18447 cpm
same,3H-TdR uptake,"[4]; 10% PS20 stock (compound 1 mg/ml), dilution 10^4",24671 cpm
same,3H-TdR uptake,"[4]; 10% PS20 stock (compound 1 mg/ml), dilution 10^5",21677 cpm
same,activity at 1 µg/mL,mouse splenic lymphocyte,954%
same,activity at 0.1 µg/mL,mouse bone marrow cells; 10^-1 μg/ml,214%
same,activity at 0.01 µg/mL,mouse bone marrow cells; 10^-2 μg/ml,763%

# Reference: US5780441A, “Sphingoglycolipid compounds and therapeutic uses thereof” (Kirin Beer Kabushiki Kaisha, priority 1993, dated 1998)
